Experimental data published in article PMC8495455, “Discovery of a transdermally deliverable pentapeptide for activating AdipoR1 to promote hair growth” (EMBO Molecular Medicine, 2021).

Tests used:
[1] = tested on: AMPK phosphorylation in ORS cells; experiment: Western blot p-AMPK, ORS cells; format: cell-based, human; conditions: P5 0 - 50 μM, APN 2.5 μg/ml
From the text: Following the confirmation of the molecular interaction between AdipoR1 and P5, we evaluated the activation of the intracellular signaling pathway by P5. We investigated whether APN treatment on ORS and DP cells could activate AMPK or ERK signaling pathways, which are previously known to be downstream effectors of AdipoR1 (Mao et al, [2006]; Deepa & Dong, [2009]; Shibata et al, [2012]). […] Next, for determination of whether both P5 and APN mediates the phosphorylation of AMPK through AdipoR1 in ORS and DP cells, the cells were transfected with AdipoR1 siRNA (Appendix Fig S1). […] Collectively, P5 activates AMPK signaling pathway through AdipoR1 in ORS and DP cells in vitro.
Human ORS and DP cells or skin tissue were lysed (RIPA lysis buffer; #20‐188; Merck Millipore). The obtained protein was then separated by 8% SDS–PAGE and transferred to a polyvinylidene fluoride membrane (Amersham). The protein transferred membranes were incubated overnight with the specific antibodies. […] Antibody‐antigen complexes detected by enhanced chemiluminescent substrate (Thermo Fisher) were captured and quantified by Amersham imager 680 systems (GE Healthcare).

Adipor1−/− mice = experiment: Mouse hair cycle modulation, histology and anagen induction score, Adipor1−/− mice; format: in vivo
From the text: To test whether the effect of P5 is mediated through AdipoR1 in vivo, we used Adipor1 ^−/− mice (Yamauchi et al, [2007]; Okada‐Iwabu et al, [2013]). […] Consistently, the anagen induction effects of P5 was abolished in the Adipor1 ^−/− mice (Fig 4I and J), in contrast to in WT mouse (Appendix Fig S2). […] Taken together, topical P5 treatment can accelerate hair growth through AdipoR1 in vivo.
Paraffin‐embedded mouse cutaneous back tissue was sectioned (4 μm thickness) and stained with hematoxylin and eosin. […] IF intensity was observed and recorded with a Nikon Eclipse Ni‐E fluorescence microscope (Nikon).
For the hair cycle modulation experiment, Adipoq ^−/− (stock #008195; JAX) (Ma et al, [2002]), Adipor1 ^−/− (Yamauchi et al, [2007]; Okada‐Iwabu et al, [2013]), or C57BL/6 (KOATECH) female mice was used (Müller‐Röver et al, [2001]). […] The mouse hair growth score (a value from 0 to 100 based on the skin pigmentation and hair shaft density) was monitored and documented at designated days with the experimenters being blind to the conditions, following a previous study (Chai et al, [2019]). […] On day 35, we obtained dorsal cutaneous tissue for histological analysis: anagen induction scores (calculated using an assigned arbitrary score; telogen = 1, anagen I–VI = 2–7) (Müller‐Röver et al, [2001]). […]

## GLYYF [P5, GST-fused (GST-P5) in pulldown assays]
[1]
  Phosphorylation of AMPK, ORS cells: concentration‐dependent phosphorylation of AMPK
Adipor1−/− mice
  Histology / anagen induction score vs vehicle: anagen HF was not found
